Measured values: US20070270484A1, “3'-N-Substituted-3-O-Substituted Erythronolide a Derivatives” (priority 2003, published 2007)

Columns and labels:
S. pneum 1256 (erm) = test: microbe, parasite or virus in culture; format: cell-based, streptococcus pneumoniae; settings: agar dilution, 18-24 hours, 35±2° C., 5% CO2; erm: ribosomal modification (mutation) erm genes
Experimental: (§1) Drug dilutions and the agar plates are prepared by NCCLS method. Inoculum is prepared by direct colony suspensions in normal saline and adjusted to 0.5 McFarland turbidity and subsequently diluted as per NCCLS guidelines in order to obtain 10^4 CFU/spot. CFU/ml of a few randomly selected cultures is performed. The cultures are replicated on the agar plates using replicator (Denley's multipoint). The plates are incubated at 35±2° C. and in 5% CO2 atmosphere (for respiratory and Haemophilus strains) for 18-24 hours at 35±2° C. Minimum inhibitory concentrations (MIC) are determined after 18-24 hours. Q. C. strains are also included in each run of the study. The cation content of Mueller Hinton agar is checked by performing disk […] of 10 μg gentamicin disk against Pseudomonas aeroginosa ATCC 27853. The zone of inhibition should fall between 16-21 mm. The concentration of drug at which there is complete disappearance of growth spot or formation of less than 10 colonies per spot is considered as MIC.

S. pneum AB 14 (erm) = test: microbe, parasite or virus in culture; format: cell-based, streptococcus pneumoniae; settings: agar dilution, 18-24 hours, 35±2° C., 5% CO2; erm: ribosomal modification (mutation) erm genes
Experimental: as §1

S. pneum 1275 (erm) = test: microbe, parasite or virus in culture; format: cell-based, streptococcus pneumoniae; settings: agar dilution, 18-24 hours, 35±2° C., 5% CO2; erm: ribosomal modification (mutation) erm genes
Experimental: as §1

S. pneum AB 29 (erm) = test: microbe, parasite or virus in culture; format: cell-based, streptococcus pneumoniae; settings: agar dilution, 18-24 hours, 35±2° C., 5% CO2; erm: ribosomal modification (mutation) erm genes
Experimental: as §1

S. pneum 1294 (mef) = test: microbe, parasite or virus in culture; format: cell-based, streptococcus pneumoniae; settings: agar dilution, 18-24 hours, 35±2° C., 5% CO2; mef: efflux pump mef genes
Experimental: as §1

S. pneum AB 30 (erm) = test: microbe, parasite or virus in culture; format: cell-based, streptococcus pneumoniae; settings: agar dilution, 18-24 hours, 35±2° C., 5% CO2; erm: ribosomal modification (mutation) erm genes
Experimental: as §1

S. pneum ATCC 49619 = test: MIC, agar incorporation method (NCCLS agar dilution method); format: cell-based, streptococcus pneumoniae; settings: 18-24 hours, 35±2° C., 5% CO2
Experimental: as §1

S. pneum AB 34 (mef) = test: as above; format: cell-based, streptococcus pneumoniae; settings: 18-24 hours, 35±2° C., 5% CO2, mef: efflux pump mef genes
Experimental: as §1

S. pneum CS 1687 (mef) = test: as above; format: cell-based, streptococcus pneumoniae; settings: 18-24 hours, 35±2° C., 5% CO2, mef: efflux pump mef genes
Experimental: as §1

S. pneum ATCC 6303 = test: as above; format: cell-based, streptococcus pneumoniae; settings: 18-24 hours, 35±2° C., 5% CO2
Experimental: as §1

S. pneum 1251 (mef) = test: as above; format: cell-based, streptococcus pneumoniae; settings: 18-24 hours, 35±2° C., 5% CO2, mef: efflux pump mef genes
Experimental: as §1

MoraXella MI = test: as above; format: cell-based; settings: 18-24 hours, 35±2° C.
Experimental: as §1

H. inflenza ATCC 49247 = test: as above; format: cell-based, Haemophilus influenzae; settings: agar dilution, 18-24 hours, 35±2° C., 5% CO2
Experimental: Minimum inhibitory concentrations (μg/ml) were obtained for representative compounds of the invention, which are given in Table 2.
as §1

CCC1OC(=O)C(C)C(OC(=O)Cc2ccc(F)cc2)C(C)C(OC2OC(C)CC(N(C)Cc3cccc(O)c3)C2O)C(C)(OC)CC(C)C(=O)C(C)C(O)C1(C)O (stereo not shown) [Compound No. 17, 3-O-(4-Fluorophenyl)acetyl-5-O-[3′-N-desmethyl-3′-N-(3-hydroxy)benzyl] desosaminyl-6-O-methyl erythronolide A]
Minimum Inhibitory Concentrations, S. pneum 1256 (erm) (S. pneum 1256 (erm)): >16 µg/mL
Minimum Inhibitory Concentrations, S. pneum AB 14 (erm) (S. pneum AB 14 (erm)): >16 µg/mL
Minimum Inhibitory Concentrations, S. pneum 1275 (erm) (S. pneum 1275 (erm)): >16 µg/mL
Minimum Inhibitory Concentrations, S. pneum AB 29 (erm) (S. pneum AB 29 (erm)): <0.5 µg/mL
Minimum Inhibitory Concentrations, S. pneum 1294 (mef) (S. pneum 1294 (mef)): 1 µg/mL
Minimum Inhibitory Concentrations, S. pneum AB 30 (erm) (S. pneum AB 30 (erm)): >16 µg/mL
Minimum Inhibitory Concentrations, S. pneum ATCC 49619 (S. pneum ATCC 49619): <0.5 µg/mL
Minimum Inhibitory Concentrations, S. pneum AB 34 (mef) (S. pneum AB 34 (mef)): >16 µg/mL
Minimum Inhibitory Concentrations, S. pneum CS 1687 (mef) (S. pneum CS 1687 (mef)): 1 µg/mL
Minimum Inhibitory Concentrations, S. pneum ATCC 6303 (S. pneum ATCC 6303): <0.5 µg/mL
Minimum Inhibitory Concentrations, S. pneum 1251 (mef) (S. pneum 1251 (mef)): 1 µg/mL
Minimum Inhibitory Concentrations, MoraXella MI (MoraXella MI): 8 µg/mL
Minimum Inhibitory Concentrations, H. inflenza ATCC 49247 (H. inflenza ATCC 49247): >16 µg/mL
